According to patent US9440964B2, “Pesticidal compositions and processes related thereto” (Dow AgroSciences LLC, priority 2011, dated 2016):

Experiments:
Type in all cases: in vivo
[1] = tested on: Yellow Fever Mosquito YFM (Aedes aegypti); experiment: Bioassay on Yellow Fever Mosquito (YFM) larvae, 96-well plate; conditions: mortality of about 1 day-old larvae, scored after 3 days
Description: Certain molecules disclosed in this document were tested against YFM using procedures described in the following paragraph. In the reporting of the results, the “YFM Rating Table” was used (See Table Section).
Master plates containing 400 μg of a molecule dissolved in 100 μL of dimethyl sulfoxide (DMSO) (equivalent to a 4000 ppm solution) are used. A master plate of assembled molecules contains 15 μL per well. To this plate, 135 μL of a 90:10 water:acetone mixture is added to each well. A robot (Biomek® NXP Laboratory Automation Workstation) is programmed to dispense 15 μL aspirations from the master plate into an empty 96-well shallow plate (“daughter” plate). There are 6 reps (“daughter” plates) created per master. The created daughter plates are then immediately infested with YFM larvae.
The day before plates are to be treated, mosquito eggs are placed in Millipore water containing liver powder to begin hatching (4 g. into 400 ml). After the daughter plates are created using the robot, they are infested with 220 μL of the liver powder/larval mosquito mixture (about 1 day-old larvae). After plates are infested with mosquito larvae, a non-evaporative lid is used to cover the plate to reduce drying. Plates are held at room temperature for 3 days prior to grading. After 3 days, each well is observed and scored based on mortality.
(§1) The results are indicated in the table entitled “Table ABC: Biological Results” (See Table Section).

[2] = tested on: CEW (Helicoverpa zea); experiment: Bioassay on Corn Earworm (CEW), 128-well diet tray; conditions: Helicoverpa zea, 168 h; percent mortality, second instar larvae, 50 μg/cm^2 on diet, five to seven days; read-out: Rating CEW
In short: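 Helicoverpa zea (corn earworm) was tested in a 128-well diet tray. Each 3 mL well received one to five second instar larvae on diet treated with the test material in an acetone-water mixture, applied to eight wells and dried. Trays were sealed with clear self-adhesive covers, kept at 25° C., 14:10 light-dark for five to seven days, then percent mortality was averaged across eight wells.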

[3] = tested on: Green Peach Aphid (GPA) (Myzus persica); experiment: Bioassay on Green Peach Aphid (GPA), cabbage seedling foliar spray; conditions: 72 h, corrected % control (Abbott), 200 ppm foliar spray on cabbage, three days, read-out: Rating GPA
Description: Certain molecules disclosed in this document were tested against GPA using procedures described in the following example. In the reporting of the results, the “GPA Rating Table” was used (See Table Section).
Cabbage seedlings grown in 3-inch pots, with 2-3 small (3-5 cm) true leaves, were used as test substrate. The seedlings were infested with 20-50 GPA (wingless adult and nymph stages) one day prior to chemical application. Four pots with individual seedlings were used for each treatment. Test compounds (2 mg) were dissolved in 2 mL of acetone/MeOH (1:1) solvent, forming stock solutions of 1000 ppm test compound. The stock solutions were diluted 5× with 0.025% Tween 20 in H2O to obtain the solution at 200 ppm test compound. A hand-held aspirator-type sprayer was used for spraying a solution to both sides of […] leaves until runoff. Reference plants (solvent check) were sprayed with the diluent only containing 20% by volume of acetone/MeOH (1:1) solvent. Treated plants were held in a holding room for three days at approximately 25° C. and ambient relative humidity (RH) prior to grading. Evaluation was conducted by counting the number of live aphids per plant under a microscope. Percent Control was measured by using Abbott's correction formula (W. S. Abbott, “A Method of Computing the Effectiveness of an Insecticide” J. Econ. Entomol. 18 (1925), pp. 265-267) as follows. Corrected % Control=100*(X−Y)/X • where • X=No. of live aphids on solvent check plants and • Y=No. of live aphids on treated plants
as §1

[4] = tested on: BAW (Spodoptera exigua); experiment: Bioassay on Beet Armyworm (BAW), 128-well diet tray; conditions: Spodoptera exigua, 168 h; percent mortality, second instar larvae, 50 μg/cm^2 on diet, five to seven days; read-out: Rating BAW
In short: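 Second-instar Spodoptera exigua larvae (one to five per well) placed on artificial diet surface-treated with 50 μg/cm^2 compound in 90:10 acetone-water, dried, eight wells per compound. Held 5–7 days at 25 °C, 14:10 light-dark; percent mortality averaged across wells.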

**Q.** Which results are given for `COc1cc(C)c(N2C(=O)CS/C2=N\C(=O)Nc2ccc(-c3ncn(-c4ccc(OC(F)(F)F)cc4)n3)cc2)c(C)c1` [Molecule A44]?
**A.** Rating YFM [1]: A (80-100); pest or weed control at 50 µg/cm2 [2]: 50 to 100%; pest or weed control at 200 ppm [3]: 0 to 80%; pest or weed control at 50 µg/cm2 [4]: 50 to 100%
